Measurements taken from US20140349948A1, “Treatment of Chronic Constipation” (Forest Laboratories Holdings Limited, priority 2009, published 2014).
Marks after values point to notes of the source that are not given here. Residues, ends and D or L forms follow the SMILES beside them.

Legend:
[1] = test system: patients with chronic constipation; experiment: Trial 2 four-week Randomized Withdrawal Period; type: in vivo, human; parameters: Straining, Change From Baseline, Mean / Abdominal Discomfort, Change From Baseline, Mean / Bloating, Change From Baseline, Mean / Constipation Severity, Change From Baseline, Mean / Global Relief of Constipation Symptoms, Change From Baseline, Mean: scale not given here; conditions: for Abdominal Discomfort, Change From Baseline, Mean / Bloating, Change From Baseline, Mean / Constipation Severity, Change From Baseline, Mean / Global Relief of Constipation Symptoms, Change From Baseline, Mean / Stool Consistency (BSFS), Change From Baseline, Mean / Straining, Change From Baseline, Mean / Weekly CSBM Rate, Change From Baseline, Mean / Weekly SBM Rate, Change From Baseline, Mean: RW Period
Description: Trial 2 was conducted in 642 patients and was identical to Trial 1 except that Trial 2 also included a four-week Randomized Withdrawal Period, defined below. During the two-week pretreatment (baseline) period, 68 percent of patients in Trial 2 had no CSBMs.
The Randomized Withdrawal (RW) Period is defined as the 4 weeks immediately following the Treatment Period. The beginning of the RW Period coincides with the end of the Treatment Period. Patients who were randomized to linaclotide in the Treatment Period and complete the 12 weeks of the Treatment Period were randomized to treatment with linaclotide or placebo in the RW Period. Patients who were randomized to placebo in the Treatment Period and complete the 12 weeks of the Treatment Period received 133 μg or 266 μg linaclotide in the RW Period.

[2] = test system: patients meeting modified Rome II criteria for chronic constipation; experiment: Chronic Constipation Trial 1, 12-week treatment period; type: in vivo, human; conditions: for Straining, Week 1 Mean Change from Baseline / Abdominal discomfort, Week 1 Mean Change from Baseline / Bloating, Week 1 Mean Change from Baseline / Constipation severity, Week 1 Mean Change from Baseline: 5-point scale: 1 = none; for Straining, Week 1 Mean Change from Baseline: 5 = an extreme amount; for Abdominal discomfort, Week 1 Mean Change from Baseline / Bloating, Week 1 Mean Change from Baseline / Constipation severity, Week 1 Mean Change from Baseline: 5 = very severe; for Stool Consistency, Week 1 Mean Change from Baseline: 7-point scale (BSFS)
Description: Linaclotide Capsules from Example 4 were administered in multicenter, randomized, double-blind, placebo-controlled trials.
Trial 1 was conducted in 630 patients meeting modified Rome II criteria for chronic constipation. The trial included a two-week pretreatment baseline period and a 12-week treatment period. A diagram of the study design for Trial 2 is given in FIG. 1, which is substantially similar to Trial 1 except for the addition of a Randomized Withdrawal period in Trial 2 as described below.
The Pretreatment Period is defined as the 14 to 21 calendar days immediately before starting the trial during which where patients provided information related to their daily bowel habits, daily assessment of the symptom severity, constipation severity, and use of other medicines, laxatives, suppositories, and/or enemas. Patients who satisfy the necessary criteria were entered into the Treatment Period. During the two-week pretreatment period, 72 percent of patients in Trial 1 had no CSBMs. A CSBM is an bowel movement that occurs in the absence of laxative, enema, or suppository usage within the preceding 24 hours that is accompanied by the patient self-reporting a feeling of complete emptying of the bowel.
The Treatment Period began with randomization and lasted for 12 weeks. Patients were randomized to treatment with 133 μg linaclotide, 266 μg linaclotide, or placebo (1:1:1), taken once daily in the morning. Patients continued to provide their daily assessments such as their daily bowel habit assessments and daily patient symptom severity assessments.

CC = experiment: Phase 2b studies for CC, four-week treatment; type: in vivo; conditions: throughout the four-week treatment period
Text: Linaclotide is a peptide GC-C agonist that is orally administered and currently in clinical trials for treatment of irritable bowel syndrome with constipation (IBS-c) and CC.

[3] = Trial 1, 133 μg (p≦0.0001) and 266 μg (p≦0.0001)
[4] = Trial 1, 133 μg (p≦0.001) and 266 μg (p≦0.0001)

## C[C@@H]1NC(=O)[C@@H]2CCCN2C(=O)[C@H](CC(N)=O)NC(=O)[C@@H]2CSSC[C@H](N)C(=O)N[C@H]3CSSC[C@H](NC1=O)C(=O)N[C@@H]([C@@H](C)O)C(=O)NCC(=O)N[C@H](C(=O)N[C@@H](Cc1ccc(O)cc1)C(=O)O)CSSC[C@H](NC(=O)[C@H](Cc1ccc(O)cc1)NC(=O)[C@H](CCC(=O)O)NC3=O)C(=O)N2 [Linaclotide, Cys1 Cys2 Glu3 Tyr4 Cys5 Cys6 Asn7 Pro8 Ala9 Cys10 Thr11 Gly12 Cys13 Tyr14] (HELM PEPTIDE1{C.C.E.Y.C.C.N.P.A.C.T.G.C.Y}$PEPTIDE1,PEPTIDE1,1:R3-6:R3|PEPTIDE1,PEPTIDE1,2:R3-10:R3|PEPTIDE1,PEPTIDE1,5:R3-13:R3$$$V2.0)
[1]; 133 μg/133 μg (n = 90)
  Abdominal Discomfort, Change From Baseline, Mean: −0.5
  Bloating, Change From Baseline, Mean: −0.4
  Constipation Severity, Change From Baseline, Mean: −0.9
  Global Relief of Constipation Symptoms, Change From Baseline, Mean: −1.3
  Stool Consistency (BSFS), Change From Baseline, Mean: 1.9
  Straining, Change From Baseline, Mean: −1.1
  Weekly CSBM Rate, Change From Baseline, Mean: 2.1
  Weekly SBM Rate, Change From Baseline, Mean: 3.0
[1]; 133 μg/Placebo (n = 95)
  Abdominal Discomfort, Change From Baseline, Mean: −0.4
  Bloating, Change From Baseline, Mean: −0.4
  Constipation Severity, Change From Baseline, Mean: −0.5
  Global Relief of Constipation Symptoms, Change From Baseline, Mean: −0.7
  Stool Consistency (BSFS), Change From Baseline, Mean: 1.0
  Straining, Change From Baseline, Mean: −0.8
  Weekly CSBM Rate, Change From Baseline, Mean: 1.0
  Weekly SBM Rate, Change From Baseline, Mean: 1.2
[1]; 266 μg/266 μg (n = 90)
  Abdominal Discomfort, Change From Baseline, Mean: −0.7
  Bloating, Change From Baseline, Mean: −0.6
  Constipation Severity, Change From Baseline, Mean: −0.9
  Global Relief of Constipation Symptoms, Change From Baseline, Mean: −1.3
  Stool Consistency (BSFS), Change From Baseline, Mean: 1.6
  Straining, Change From Baseline, Mean: −1.3
  Weekly CSBM Rate, Change From Baseline, Mean: 2.2
  Weekly SBM Rate, Change From Baseline, Mean: 2.5
[1]; 266 μg/Placebo (n = 86)
  Abdominal Discomfort, Change From Baseline, Mean: −0.4
  Bloating, Change From Baseline, Mean: −0.2
  Constipation Severity, Change From Baseline, Mean: −0.5
  Global Relief of Constipation Symptoms, Change From Baseline, Mean: −0.8
  Stool Consistency (BSFS), Change From Baseline, Mean: 0.8
  Straining, Change From Baseline, Mean: −0.8
  Weekly CSBM Rate, Change From Baseline, Mean: 0.9
  Weekly SBM Rate, Change From Baseline, Mean: 1.3
[1]; Placebo/266 μg (n = 177)
  Abdominal Discomfort, Change From Baseline, Mean: −0.5
  Bloating, Change From Baseline, Mean: −0.5
  Constipation Severity, Change From Baseline, Mean: −1.0
  Global Relief of Constipation Symptoms, Change From Baseline, Mean: −1.3
  Stool Consistency (BSFS), Change From Baseline, Mean: 1.9
  Straining, Change From Baseline, Mean: −1.2
  Weekly CSBM Rate, Change From Baseline, Mean: 2.1
  Weekly SBM Rate, Change From Baseline, Mean: 3.7
[1]; Randomized Withdrawal Period
  bowel and abdominal symptoms and global assessments in patients continuing treatment: sustained improvements
  frequencies of adverse events following discontinuing of treatment: no evidence of rebound of CC symptoms or increase in the frequencies of adverse events
  rebound of CC symptoms following discontinuing of treatment: no evidence of rebound of CC symptoms
[1]; Randomized Withdrawal Period, placebo then linaclotide
  CC symptoms in patients initiating linaclotide treatment: marked improvement
[1]; Randomized Withdrawal Period, versus those receiving linaclotide during first 4 weeks of Treatment Period
  incidence of adverse events in patients initiating linaclotide treatment: similar
[1]; linaclotide for 12 weeks, re-randomized to placebo during 4 week withdrawal period
  CSBM and SBM rates versus baseline rates after withdrawal: no decreases in CSBM (FIG. 2) or SBM rates (FIG. 3) below the baseline rates
[2]; 133 μg, Trial 1 (n = 213)
  CSBM rate, Week 1 Mean Change from Baseline: 1.94***
  SBM rate, Week 1 Mean Change from Baseline: 4.09***
  Straining, Week 1 Mean Change from Baseline: −1.04***
  Abdominal discomfort, Week 1 Mean Change from Baseline: −0.27**
  Bloating, Week 1 Mean Change from Baseline: −0.31*
  Constipation severity, Week 1 Mean Change from Baseline: −0.78***
  Stool Consistency, Week 1 Mean Change from Baseline: 1.79***
[2]; 266 μg, Trial 1 (n = 202)
  CSBM rate, Week 1 Mean Change from Baseline: 2.63***
  SBM rate, Week 1 Mean Change from Baseline: 4.09***
  Straining, Week 1 Mean Change from Baseline: −1.10***
  Abdominal discomfort, Week 1 Mean Change from Baseline: −0.28***
  Bloating, Week 1 Mean Change from Baseline: −0.36***
  Constipation severity, Week 1 Mean Change from Baseline: −0.81***
  Stool Consistency, Week 1 Mean Change from Baseline: 1.96***
[2]; Trial 1, 133 μg
  12-week CSBM overall responder rate: 16.0%
  increase in average weekly CSBMs from baseline: 2.0
  increase in average weekly SBMs from baseline: 3.4
  numerical increase of 12-week CSBM overall responder rate as compared to placebo: 2.6 fold
  patients reporting at least one CSBM within 24 hours of treatment: 28.2%
  patients reporting at least one SBM within 24 hours of treatment: 64.3%
  patients with increase of ≧1 from baseline in weekly CSBMs in at least nine out of 12 weeks: 31.0%
  patients with increase of ≧1 from baseline in weekly CSBMs in at least six out of 12 weeks: 47.4%
  patients with ≧3 weekly CSBMs in at least nine out of 12 weeks: 16.0%
[2]; Trial 1, 266 μg
  12-week CSBM overall responder rate: 21.3%
  increase in average weekly CSBMs from baseline: 2.7
  increase in average weekly SBMs from baseline: 3.7
  numerical increase of 12-week CSBM overall responder rate as compared to placebo: 3.5 fold
  patients reporting at least one CSBM within 24 hours of treatment: 29.7%
  patients reporting at least one SBM within 24 hours of treatment: 60.4%
  patients with increase of ≧1 from baseline in weekly CSBMs in at least nine out of 12 weeks: 40.1%
  patients with increase of ≧1 from baseline in weekly CSBMs in at least six out of 12 weeks: 51.0%
  patients with ≧3 weekly CSBMs in at least nine out of 12 weeks: 21.8%
[2]; [3]
  PAC-QOL overall assessments, 12 week overall mean change versus placebo: statistically significant improvements
  PAC-QOL subscale score Physical Discomfort versus placebo: statistically significant improvements
  PAC-QOL subscale score Satisfaction versus placebo: statistically significant improvements
  PAC-QOL subscale score Worries/Concerns versus placebo: statistically significant improvements
  severity of straining score, 12 week overall mean change versus placebo: statistically significant improvements
  stool consistency score, 12 week overall mean change versus placebo: statistically significant improvements
[2]; [4]
  abdominal discomfort score, 12 week overall mean change versus placebo: statistically significant improvements
  bloating score, 12 week overall mean change versus placebo: statistically significant improvements
  constipation severity score, 12 week overall mean change versus placebo: statistically significant improvements
CC
  effect on constipation, abdominal discomfort, and bloating: reduced constipation, abdominal discomfort, and bloating
